The values that follow come from patent US6943178B2 (Wyeth, priority 2001, dated 2005).

In one data set the target is T1, human 5-HT1A receptors (Homo sapiens, UniProt P08908).
T1 construct: expressed in transfected cells; host or cells: CHO cells
T1 sequence (P08908 1-422): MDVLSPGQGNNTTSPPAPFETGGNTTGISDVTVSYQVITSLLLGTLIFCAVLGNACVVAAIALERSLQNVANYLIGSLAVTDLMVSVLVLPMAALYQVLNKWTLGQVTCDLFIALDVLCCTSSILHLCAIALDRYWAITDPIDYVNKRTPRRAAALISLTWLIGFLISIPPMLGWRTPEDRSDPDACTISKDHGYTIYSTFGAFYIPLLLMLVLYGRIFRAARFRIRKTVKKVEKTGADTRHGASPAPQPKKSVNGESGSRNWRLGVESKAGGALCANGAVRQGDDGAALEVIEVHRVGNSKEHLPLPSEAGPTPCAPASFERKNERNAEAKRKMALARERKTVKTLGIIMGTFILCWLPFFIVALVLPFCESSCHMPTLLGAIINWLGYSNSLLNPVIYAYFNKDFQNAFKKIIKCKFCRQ
In words: [3H] 8-OHDPAT displacement, 5-HT1A receptor affinity. Format: binding. From the text:
High affinity for the serotonin 5-HT1A receptor was established by testing the claimed compound's ability to displace [^3H] 8-OHDPAT (dipropylaminotetralin) from the 5-HT1A serotonin receptor following a modification of the procedure of Hall et al., J. Neurochem. 44, 1685 (1985) which utilizes CHO cells stably transfected with human 5-HT1A receptors.

Another data set concerns the target T2, serotonin transporter (Rattus norvegicus, UniProt P31652).
T2 construct: displace ^3H-paroxetine from male rat frontal cortical membranes; from tissue; host or cells: male rat frontal cortex membranes
In words: 3H-paroxetine displacement, serotonin transporter affinity. It is filed as binding.

Data set [1] has as its target T3, cloned human 5-HT1A receptors (Homo sapiens, UniProt P08908).
T3 construct: expressed in transfected cells
T3 sequence (P08908 1-422): T1 sequence (P08908 1-422)
Briefly: 35S-GTPγS binding assay, 5-HT1A antagonist activity. It is filed as biochemical. How it is done: Antagonist activity at 5-HT1A receptors was established by using a ^35S-GTPγS binding assay similar to that used by Lazareno and Birdsall (Br. J. Pharmacol. 109: 1120, 1993), in which the test compound's ability to affect the binding of ^35S-GTPγS to membranes containing cloned human 5-HT1A receptors was determined. Agonists produce an increase in binding whereas antagonists produce no increase but rather reverse the effects of the standard agonist 8-OHDPAT. The test compound's maximum inhibitory effect is represented as the Imax, while its potency is defined by the IC50.
In general terms: GTPγS resists hydrolysis and so accumulates on activated G proteins.

The mark [2] stands for this setting: 35S-GTPγS binding, reversal of the effects of the standard agonist 8-OHDPAT.
Setting [3] is: 35S-GTPγS binding, reversal of the effects of the standard agonist 8-OHDPAT, read-out: 5-HT1A Function IC50.

Where a name gives a salt, the structure may show the parent alone. Read-outs that look alike come from different tables or passages of the source.

T2 sequence (P31652 whole entry): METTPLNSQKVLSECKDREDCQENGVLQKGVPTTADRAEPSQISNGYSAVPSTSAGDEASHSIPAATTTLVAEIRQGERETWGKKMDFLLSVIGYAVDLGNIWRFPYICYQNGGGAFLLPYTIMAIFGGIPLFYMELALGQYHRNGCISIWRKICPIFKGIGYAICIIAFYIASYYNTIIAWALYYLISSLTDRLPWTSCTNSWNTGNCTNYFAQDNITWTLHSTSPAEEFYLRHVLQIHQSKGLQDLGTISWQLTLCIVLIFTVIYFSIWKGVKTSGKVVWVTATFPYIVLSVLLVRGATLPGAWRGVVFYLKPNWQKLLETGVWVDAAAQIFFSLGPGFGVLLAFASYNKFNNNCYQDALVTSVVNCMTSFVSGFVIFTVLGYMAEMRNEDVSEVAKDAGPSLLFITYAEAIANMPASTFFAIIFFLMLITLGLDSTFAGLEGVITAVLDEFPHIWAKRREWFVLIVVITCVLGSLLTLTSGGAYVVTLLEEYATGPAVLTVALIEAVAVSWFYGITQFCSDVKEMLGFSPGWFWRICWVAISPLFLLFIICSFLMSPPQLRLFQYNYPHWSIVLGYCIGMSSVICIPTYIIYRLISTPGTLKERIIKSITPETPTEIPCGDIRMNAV

In turn, `O=c1ccoc2c3c(ccc12)OC(CN1CC=C(c2c[nH]c4ccc(F)cc24)CC1)CO3` (stereo not drawn) (as salt: fumarate) (hydrate or solvate) [Example 1, 3-[4-(5-Fluoro-1H-indol-3-yl)-3,6-dihydro-2H-pyridin-1-ylmethyl]-2,3-dihydro-7H-pyrano[2,3-f][1,4]benzodioxin-7-one] had a melting point of 106 to 108 °C.
The same measure, in the same setting: the same measure for `Fc1ccc2[nH]cc(C3=CCN(CC4COc5ccc6c(c5O4)OCCC6)CC3)c2c1` (stereo not drawn) (as salt: oxalate) [Example 2, 5-Fluoro-3-[1,2,3,6-tetrahydro-1-[(2,3,8,9-tetrahydro-7H-pyrano[2,3-f][1,4]benzodioxin-2-yl)methyl]-4-pyridinyl]-1H-indole]: 146 to 148 °C.
For the compound `C1=C(c2c[nH]c3ccccc23)CCN(CC2COc3ccc4c(c3O2)OCCC4)C1` (stereo not drawn) (as salt: oxalate) [Example 4, 3-{1-(2,3,8,9-Tetrahydro-7H-[1,4]dioxino[2,3-h]chromen-2-ylmethyl)-1,2,3,6-tetrahydropyridin-4-yl}-1H-indole], the melting point came out at 140 °C.
On to `O=c1ccoc2c3c(ccc12)OC[C@H](CN1CC=C(c2c[nH]c4ccc(F)cc24)CC1)O3` [Example 1], for which the inhibition constant Ki at human 5-HT1A receptors worked out at 119 nM; on serotonin transporter it was 2.69 nM. This compound yielded a half-maximal inhibitory concentration (IC50) in data set [1] of 2.37 nM. Besides, the “5-HT1A Function Imax (maximum inhibitory effect)” value in data set [1] (setting [2]) worked out at 100.
Take `Fc1ccc2[nH]cc(C3=CCN(CC4COc5ccc6c(c5O4)OCCC6)CC3)c2c1` (stereo not drawn) [Example 2, 5-Fluoro-3-[1,2,3,6-tetrahydro-1-[(2,3,8,9-tetrahydro-7H-pyrano[2,3-f][1,4]benzodioxin-2-yl)methyl]-4-pyridinyl]-1H-indole]: the values for the Ki at human 5-HT1A receptors and at serotonin transporter were 27.6 nM and 2.57 nM, respectively. Also, in data set [1] (setting [2]), the “5-HT1A Function Imax (maximum inhibitory effect)” value is 100. In data set [1] (setting [3]), the IC50 was 0.56 nM.
The compound `O=C1CCOc2c1ccc1c2OC(CN2CC=C(c3c[nH]c4ccccc34)CC2)CO1` (stereo not drawn) [Example 3, 3-[4-(1H-indol-3-yl)-3,6-dihydro-2H-pyridin-1-ylmethyl]-2,3,6,7-tetrahydro-1,4,5-trioxa-phenanthren-8-one] gave a melting point of 210 °C. Further, the Ki on human 5-HT1A receptors (displacement of [3H] 8-OHDPAT, CHO cells stably transfected with human 5-HT1A receptors, read-out: 5-HT1A Receptor Affinity KI) came out at 156 nM. At serotonin transporter, this compound returned a Ki of 2.74 nM.
For `C1=C(c2c[nH]c3ccccc23)CCN(CC2COc3ccc4c(c3O2)OCCC4)C1` (stereo not drawn) [Example 4, 3-{1-(2,3,8,9-Tetrahydro-7H-[1,4]dioxino[2,3-h]chromen-2-ylmethyl)-1,2,3,6-tetrahydropyridin-4-yl}-1H-indole], the inhibition constant Ki on human 5-HT1A receptors worked out at 44.1 nM; on serotonin transporter, 0.9 nM. For the same compound, the “5-HT1A Function Imax (maximum inhibitory effect)” value in data set [1] (setting [2]) turned out to be 87.0. Further, in data set [1] (setting [3]), the IC50 was 0.38 nM.

One may read the melting point as the temperature, or range, at which the solid turns liquid. Broadly, the Ki is a measure of affinity in units of concentration, obtained from inhibition or displacement. The term IC50 denotes the midpoint of a concentration-inhibition curve.
